Assays:
[1] = target: T1, TREX1 (Three-prime Repair EXonuclease 1), mouse (Mus musculus, UniProt Q91XB0); test: fluorescence exonuclease assay (FAM-12mer-BHQ1) in HEK293T overexpression lysate, with D18N and empty-vector controls; type: biochemical
T1 construct: full-length mouse TREX1 (wild-type), overexpressed in HEK293T
T1 sequence (Q91XB0 1-314): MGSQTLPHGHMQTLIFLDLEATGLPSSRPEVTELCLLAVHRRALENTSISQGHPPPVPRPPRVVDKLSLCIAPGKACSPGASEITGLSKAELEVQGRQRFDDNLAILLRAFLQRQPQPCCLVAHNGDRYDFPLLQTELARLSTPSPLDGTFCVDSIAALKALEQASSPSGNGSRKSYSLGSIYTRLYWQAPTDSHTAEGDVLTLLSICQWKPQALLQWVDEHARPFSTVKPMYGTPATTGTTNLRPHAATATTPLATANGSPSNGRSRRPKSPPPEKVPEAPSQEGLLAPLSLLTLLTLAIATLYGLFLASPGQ

[2] = target: T2, TREX1 (Three-prime Repair EXonuclease 1), human (Homo sapiens, UniProt Q9NSU2); test: BioVision […]' to […]' exonuclease activity assay in THP1-Dual lysate, with TREX1 knockout lysate control; type: biochemical
T2 construct: endogenous human TREX1 in THP1-Dual cell lysate
T2 sequence (Q9NSU2 1-314): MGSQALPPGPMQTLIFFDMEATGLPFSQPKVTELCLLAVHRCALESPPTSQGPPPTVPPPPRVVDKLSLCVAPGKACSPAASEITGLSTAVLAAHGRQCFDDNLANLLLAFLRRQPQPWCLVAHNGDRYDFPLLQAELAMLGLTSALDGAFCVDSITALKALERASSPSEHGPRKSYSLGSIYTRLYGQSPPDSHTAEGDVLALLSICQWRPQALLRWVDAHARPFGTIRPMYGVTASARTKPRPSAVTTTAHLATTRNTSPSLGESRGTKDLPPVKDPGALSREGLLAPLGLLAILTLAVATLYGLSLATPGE

With VB-85680 the IC50 [1] was 3.1 nM and the IC50 [2] was 48.8 nM.
